The values that follow come from ChEMBL document CHEMBL1146178, “Synthesis and antiviral activity against tobacco mosaic virus and 3D-QSAR of alpha-substituted-1,2,3-thiadiazoleacetamides” (Bioorg Med Chem Lett, 2006).

Assay [1] deals with Tobacco mosaic virus. Nature of the assay: Antiviral activity against TMV at 500 mg/L. The format is functional.
Assay [2] relates to Hepatitis B virus. As to the kind of experiment: Antiviral activity against HBV in HepG2 2.2.15 cells assessed as inhibition of HBeAg at 0.4 umol/mL. It is filed as functional.
The subject of assay [3] is Hepatitis B virus. Nature of the assay: Antiviral activity against HBV in HepG2 2.2.15 cells assessed as inhibition of HBsAg at 0.6 umol/mL. It is filed as functional.
For assay [4], the system named is Hepatitis B virus. Nature of the assay: Antiviral activity against HBV in HepG2 2.2.15 cells assessed as inhibition of viral DNA synthesis. The format is functional, organism-based.
Assay [5] concerns Hepatitis B virus. Nature of the assay: Antiviral activity against HBV in HepG2 2.2.15 cells assessed as inhibition of HBeAg at 0.6 umol/mL. It is filed as functional.
The subject of assay [6] is Hepatitis B virus. As to the kind of experiment: Antiviral activity against HBV in HepG2 2.2.15 cells assessed as inhibition of HBsAg at 0.4 umol/mL. It is filed as functional.

What is called inhibition is the percentage by which the read-out fell short of the control. In assay [1], `CNC(=O)C(Oc1ccccc1Cl)c1csnn1` (stereo not given) yielded an inhibition at 500 µg/mL of 53%.

In assay [1], `CNC(=O)C(c1csnn1)[S+]([O-])c1ccccc1F` (stereo not given) showed an inhibition at 500 µg/mL of 19%.

For the molecule `CNC(=O)C(Oc1cccc(C)c1)c1csnn1` (stereo not given), at 500 µg/mL the inhibition in assay [1] was 5.5%.

With `CNC(=O)C(c1csnn1)[S+]([O-])c1ccc(Cl)cc1` (stereo not given), the inhibition at 500 µg/mL in assay [1] stood at 31%.

`CNC(=O)C(Oc1ccc(Br)cc1)c1csnn1` (stereo not given) displayed an inhibition at 500 µg/mL in assay [1] of 64%.

With `CNC(=O)C(Sc1nnc(-c2c(C)nn(C)c2SC)s1)c1csnn1` (stereo not given), testing at 500 µg/mL in assay [1] gave an inhibition of 35%.

With `CNC(=O)C(Sc1ccc(Cl)cc1)c1csnn1` (stereo not given), in assay [1], the inhibition at 500 µg/mL turned out to be 42%.

In the case of `CNC(=O)C(c1csnn1)S(=O)(=O)c1ccc(F)cc1` (stereo not given), the inhibition at 500 µg/mL in assay [1] was 19%.

The molecule `CNC(=O)C(c1csnn1)S(=O)(=O)c1ccc(OC)cc1` (stereo not given) came in with an inhibition at 500 µg/mL in assay [1] of 0%.

Molecule `CNC(=O)C(Sc1ccccc1F)c1csnn1` (stereo not given) returned an inhibition at 500 µg/mL in assay [1] of 37%.

Molecule `CNC(=O)C(c1csnn1)S(=O)(=O)c1ccccc1F` (stereo not given) yielded an inhibition at 500 µg/mL in assay [1] of 82%.

Molecule `CNC(=O)C(Oc1ccc2ccccc2c1)c1csnn1` (stereo not given) came in with an inhibition at 500 µg/mL in assay [1] of 44%.

As to `CNC(=O)C(c1csnn1)S(=O)(=O)c1cc(C)ccc1C` (stereo not given), in assay [1], the inhibition at 500 µg/mL worked out at 12%.

In turn, `CNC(=O)C(c1csnn1)[S+]([O-])Cc1ccc(Cl)cc1` (stereo not given) gave an inhibition at 500 µg/mL in assay [1] of 20%.

As for `CNC(=O)C(Sc1nc2nc(C)cc(C)n2n1)c1csnn1` (stereo not given), the inhibition at 500 µg/mL in assay [1] came out at 5%.

As usually defined, the Inhibition is the share of the control response that was lost under treatment. As a reminder, the IC50 is the point on the concentration scale where inhibition reaches its midpoint. With `CNC(=O)C(Oc1cc(C)ccc1Cl)c1csnn1` (stereo not given), the Inhibition came out at 44.2% in assay [2], 88.6% in assay [3], 15.5% in assay [5] and 52.9% in assay [6]. The molecule also yielded an inhibition at 500 µg/mL in assay [1] of 56%. For the same molecule, the concentration for half-maximal inhibition (IC50) in assay [4] was found to be 400 µM.

For `CNC(=O)C(Oc1ccccc1Br)c1csnn1` (stereo not given), testing at 500 µg/mL in assay [1] gave an inhibition of 44%.

As to `CNC(=O)C(c1csnn1)[S+]([O-])c1ccc(F)cc1` (stereo not given), the inhibition at 500 µg/mL in assay [1] was 11%.

For the molecule `CNC(=O)C(Sc1cc(C)ccc1C)c1csnn1` (stereo not given), in assay [1], testing at 500 µg/mL gave an inhibition of 0%.

`CNC(=O)C(c1csnn1)[S+]([O-])c1cc(C)ccc1C` (stereo not given) came in with an inhibition at 500 µg/mL in assay [1] of 0%.

Turning to `CNC(=O)C(Sc1ccc(F)cc1)c1csnn1` (stereo not given), the inhibition at 500 µg/mL in assay [1] was 33%.

Molecule `CNC(=O)C(SCc1ccc(Cl)cc1)c1csnn1` (stereo not given) came in with an inhibition at 500 µg/mL in assay [1] of 35%.

As for `CNC(=O)C(c1csnn1)S(=O)(=O)Cc1ccc(Cl)cc1` (stereo not given), the inhibition at 500 µg/mL in assay [1] is 51%.

Consider `CNC(=O)C(c1csnn1)n1cncn1` (stereo not given), for which the inhibition at 500 µg/mL in assay [1] stood at 42%.

In turn, `CNC(=O)C(Sc1cc(Cl)ccc1Cl)c1csnn1` (stereo not given) came in with an inhibition at 500 µg/mL in assay [1] of 0%.
